Results on 10 compounds are retold here after PubChem BioAssay AID1259407 (Chemical Carcinogenesis Research Information System (CCRIS), 2018).

This series deals with CCRIS mutagenicity, Ames/micronucleus/aberration tests. Description: CCRIS mutagenicity studies.
Where [1] appears, read: Test System: AMES SALMONELLA TYPHIMURIUM, Strain/Indicator: TA98, Metabolic Activation: NONE, Method: PREINCUBATION
The mark [2] stands for this setting: Test System: AMES SALMONELLA TYPHIMURIUM, Strain/Indicator: TA100, Metabolic Activation: NONE, Method: PREINCUBATION
The mark [3] stands for this setting: Test System: AMES SALMONELLA TYPHIMURIUM, Strain/Indicator: TA100, Metabolic Activation: NONE, Method: STANDARD PLATE.

Activity calls are given as the source filed them. The rule behind the calls is not given here.

As to `CC(O)CN(CC(C)O)CC(C)O` (stereo unspecified), the mutagenic call by setting is: (Test System: AMES SALMONELLA TYPHIMURIUM, Strain/Indicator: TA98, Metabolic Activation: HAMSTER, LIVER, S-9, AROCLOR 1254 (10%), Method: PREINCUBATION) “inactive; negative”; under setting [1], “inactive; negative”; (Test System: AMES SALMONELLA TYPHIMURIUM, Strain/Indicator: TA98, Metabolic Activation: RAT, LIVER, S-9, AROCLOR 1254 (10%), Method: PREINCUBATION) “inactive; negative”; (Test System: AMES SALMONELLA TYPHIMURIUM, Strain/Indicator: TA100, Metabolic Activation: HAMSTER, LIVER, S-9, AROCLOR 1254 (10%), Method: PREINCUBATION) “inactive; negative”; under setting [2], “inactive; negative”; (Test System: AMES SALMONELLA TYPHIMURIUM, Strain/Indicator: TA100, Metabolic Activation: RAT, LIVER, S-9, AROCLOR 1254 (10%), Method: PREINCUBATION) “inactive; negative”. Moreover, the mutagenic call was “inactive; negative” (Test System: AMES SALMONELLA TYPHIMURIUM, Strain/Indicator: TA1535, Metabolic Activation: HAMSTER, LIVER, S-9, AROCLOR 1254 (10%), Method: PREINCUBATION); “inactive; negative” (Test System: AMES SALMONELLA TYPHIMURIUM, Strain/Indicator: TA1535, Metabolic Activation: NONE, Method: PREINCUBATION); “inactive; negative” (Test System: AMES SALMONELLA TYPHIMURIUM, Strain/Indicator: TA1535, Metabolic Activation: RAT, LIVER, S-9, AROCLOR 1254 (10%), Method: PREINCUBATION); “inactive; negative” (Test System: AMES SALMONELLA TYPHIMURIUM, Strain/Indicator: TA1537, Metabolic Activation: HAMSTER, LIVER, S-9, AROCLOR 1254 (10%), Method: PREINCUBATION); “inactive; negative” (Test System: AMES SALMONELLA TYPHIMURIUM, Strain/Indicator: TA1537, Metabolic Activation: NONE, Method: PREINCUBATION); “inactive; negative” (Test System: AMES SALMONELLA TYPHIMURIUM, Strain/Indicator: TA1537, Metabolic Activation: RAT, LIVER, S-9, AROCLOR 1254 (10%), Method: PREINCUBATION).
On to `CCCCC(=O)N=c1sn(C(=O)CCCC)c2ccc([N+](=O)[O-])cc12`, for which, where the note is “Test System: AMES SALMONELLA TYPHIMURIUM, Strain/Indicator: TA100, Metabolic Activation: S-9, Method: STANDARD PLATE”, the mutagenic call was “active; positive”.
For the compound `CC1(C)Cc2cccc(O)c2O1`, the mutagenic call (End Point: IN VIVO MICRONUCLEUS, Test System: BONE MARROW POLYCHROMATIC ERYTHROCYTES, Species: MOUSE, Strain/Sex: KM/MALE, FEMALE, Route: IP INJECTION) was “inactive; negative”.
For `[O-][n+]1cccc2c1C=C[C@H]1O[C@@H]21`, the mutagenic call is, setting by setting: under setting [3], “inactive; negative”; (Test System: AMES SALMONELLA TYPHIMURIUM, Strain/Indicator: TA100, Metabolic Activation: RAT, LIVER, S-9, AROCLOR 1254 (10% OR 20%), Method: STANDARD PLATE) “inactive; negative”.
For the compound `O=C(NCO)c1ccc(Cl)cc1`, the mutagenic call was “inactive; negative” (Test System: AMES SALMONELLA TYPHIMURIUM, Strain/Indicator: TA100, Metabolic Activation: RAT, LIVER, S-9, AROCLOR AND 3'-PHOSPHOADENOSINE-5'-PHOSPHOSULPHATE GENERATING SYSTEM, Method: PREINCUBATION); “inactive; negative” (Test System: AMES SALMONELLA TYPHIMURIUM, Strain/Indicator: TA100, Metabolic Activation: RAT, LIVER, S-9, AROCLOR AND ACETYL COENZYME A, Method: PREINCUBATION); “inactive; negative” (Test System: AMES SALMONELLA TYPHIMURIUM, Strain/Indicator: TA100, Metabolic Activation: RAT, LIVER, S-9, AROCLOR, Method: PREINCUBATION).
`OC1C=C2c3ccc4ccccc4c3-c3cccc(c32)C1O` (stereo unspecified): the mutagenic call (Test System: AMES SALMONELLA TYPHIMURIUM, Strain/Indicator: TA97A, Metabolic Activation: NONE, Method: PREINCUBATION) is “inactive; negative”; the mutagenic call (Test System: AMES SALMONELLA TYPHIMURIUM, Strain/Indicator: TA97A, Metabolic Activation: RAT, LIVER, S-9, AROCLOR 1254, Method: PREINCUBATION) is “active; positive”; the mutagenic call under setting [1] is “inactive; negative”; the mutagenic call (Test System: AMES SALMONELLA TYPHIMURIUM, Strain/Indicator: TA98, Metabolic Activation: RAT, LIVER, S-9, AROCLOR 1254, Method: PREINCUBATION) is “active; positive”; the mutagenic call under setting [2] was “active; positive”; the mutagenic call (Test System: AMES SALMONELLA TYPHIMURIUM, Strain/Indicator: TA100, Metabolic Activation: RAT, LIVER, S-9, AROCLOR 1254, Method: PREINCUBATION) is “active; positive”.
In the case of `CC1(C(Cl)Cl)C2[C@@H](Cl)[C@H](Cl)C1(C(Cl)Cl)[C@@H](Cl)[C@@H]2Cl` (stereo partly specified), under setting [2], the mutagenic call is “inactive; negative”.
`CC(=O)O[C@H]1[C@@H]2CC(C)(C)CC2=C(C=O)[C@@]2(C=O)C[C@@]12C`: the mutagenic call was “inactive; negative” (Test System: AMES SALMONELLA TYPHIMURIUM, Strain/Indicator: TA98, Metabolic Activation: NONE, Method: STANDARD PLATE); “inactive; negative” under setting [3]; “inactive; negative” (Test System: AMES SALMONELLA TYPHIMURIUM, Strain/Indicator: TA2637, Metabolic Activation: NONE, Method: STANDARD PLATE); “inactive; negative” (Test System: CHINESE HAMSTER V-79, Strain/Indicator: V-79/6-THIOGUANINE (HGPRT), Metabolic Activation: NONE).
`CCCCCOC(=O)C=Cc1ccc([N+](=O)[O-])o1`: the mutagenic call under setting [1] is “active; positive”.
As to `CC(C)NCC(O)c1ccc(NS(C)(=O)=O)cc1` (stereo unspecified), the mutagenic call is, setting by setting: (Test System: AMES SALMONELLA TYPHIMURIUM, Strain/Indicator: TA98, Metabolic Activation: NONE) “inactive; negative”; (Test System: AMES SALMONELLA TYPHIMURIUM, Strain/Indicator: TA98, Metabolic Activation: RAT, LIVER, S-9, AROCLOR 1254) “inactive; negative”; (Test System: AMES SALMONELLA TYPHIMURIUM, Strain/Indicator: TA100, Metabolic Activation: NONE) “inactive; negative”; (Test System: AMES SALMONELLA TYPHIMURIUM, Strain/Indicator: TA100, Metabolic Activation: RAT, LIVER, S-9, AROCLOR 1254) “inactive; negative”; (Test System: AMES SALMONELLA TYPHIMURIUM, Strain/Indicator: TA1535, Metabolic Activation: NONE) “inactive; negative”; (Test System: AMES SALMONELLA TYPHIMURIUM, Strain/Indicator: TA1535, Metabolic Activation: RAT, LIVER, S-9, AROCLOR 1254) “inactive; negative”. Further, the mutagenic call is “inactive; negative” (Test System: AMES SALMONELLA TYPHIMURIUM, Strain/Indicator: TA1537, Metabolic Activation: NONE); “inactive; negative” (Test System: AMES SALMONELLA TYPHIMURIUM, Strain/Indicator: TA1537, Metabolic Activation: RAT, LIVER, S-9, AROCLOR 1254); “inactive; negative” (Test System: UDS HUMAN HEPATOCYTES, Strain/Indicator: THY INCORP, Metabolic Activation: NONE, Method: AUTORADIOGRAPHY); “inactive; negative” (Test System: UDS RAT HEPATOCYTES, Strain/Indicator: THY INCORP, Metabolic Activation: NONE, Method: AUTORADIOGRAPHY).
